Where “and” joins values, the source holds several entries; their conditions need not be identical. Equal entries are not always repeated. Marks after values point to notes of the source that are not given here. Oligonucleotides are written 5' to 3', each unit as a sugar letter and its base; * is a phosphorothioate linkage, no mark a phosphodiester; rarer units and linkages stand in square brackets, end groups in braces. Plain capitals give the bases only. e = 2'-O-(2-methoxyethyl) (MOE); [5mC] = 5-methylcytosine; d = 2'-deoxy (DNA)
System: RPMI 8226 (human myeloma) xenograft
Assay: In vivo activity of custirsen with Velcade, RPMI 8226 xenograft (Example 14)
Conditions: for % of baseline / Δ %: weight
Description: The cells were implanted subcutaneously into female SCID mice with 7×10^6 cells inoculum.
Tumors and body weights were measured weekly until termination of the study on day 71. Response to treatment was evaluated for tumor growth inhibition (TGI) and tumor growth delay (TGD).
70 CB.17 SCID female mice, 4-6 weeks old, 16-20 grams, obtained from Harlan animal breeding center.
Sample from the cell suspension was taken for counting (0.3 ml in duplicates for CEDEX) before spun down. Cell viability was 85.6% and live cell concentration was 167×10^5 cells/ml. The pellet was resuspended in HBSS to a final volume of 8 ml.
Tumors were implanted subcutaneously with RPMI-8226 cells into the right flank of the mouse on Day 0. Each animal received a s.c. injection 7×10^6 cells in 0.1 ml suspension. On day 20, mice were sorted by the optimal tumor volume ([…]) and were allocated into 5 groups of 10 mice. Mice were individually tagged and their tumor volume and body weight were monitored weekly during the study. Tumor size was measured by caliper and calculated using the formula: […]
The treatment started on […] (0.2 ml per 20 grams v/w) and continued till day 52, after which the remaining mice were left for observation until day 71.

[1] = Custirsen 40 mg/kg ip qd*5, twk, day 51
[2] = OGX 40 ip qd*5, twk, Day 48, group mean
[3] = OGX 40 ip qd*5, twk, Day 48, individual mice, listed as OGX
[4] = OGX 40 ip qd*5, twk, Day 51, group mean
[5] = OGX 40 ip qd*5, twk, Day 51, individual mice, listed as OGX
[6] = OGX 40 ip qd*5, twk, Day 58, individual mice, listed as OGX
[7] = OGX 40 ip qd*5, twk, Day 63, individual mice, listed as OGX
[8] = OGX 40 ip qd*5, twk, earlier day (day not given), group mean
[9] = OGX 40 ip qd*5, twk, earlier day (day not given), group mean, tumor
[10] = OGX 40 ip qd*5, twk, earlier day (day not given), individual mouse, listed as OGX
[11] = OGX 40 ip qd*5, twk, earlier day (day not given), individual mouse, tumor, listed as OGX
[12] = OGX 40 ip qd*5, twk, group Mean, n 9
[13] = OGX 40 ip qd*5, twk, group Mean, n 9, vs Day 20

Custirsen: anti-clusterin antisense oligonucleotide CAGCAGCAGAGTCTTCATCAT, phosphorothioate backbone, 2′-O-methoxyethyl at nucleotides 1-4 and 18-21, 5-methylcytosines at 1, 4, 19 (antisense e[5mC]*eA*eG*e[5mC]*dA*dG*dC*dA*dG*dA*dG*dT*dC*dT*dT*dC*dA*eT*e[5mC]*eA*eT; listed as Homo sapiens)
Max BW (mean) reduction (Custirsen 40 mg/kg ip qd*5, twk, day 34): −4.7% | % TGI day 51 [1]: 46* % | No. of CR [1]: 0 | No. of PR [1]: 0 | No. of TRD [1]: 1 | No. og nTRD [1]: 0 | Δ mean tumor volume, (mean ± se) [1]: 667 ± 87 | % TGI day 51 (Custirsen 40 mg/kg ip qd*5, twk, day 51, listed as Custersin): 46% | volume [2]: 649.2 | weight [2]: 19.8 | Δ % (weight) [2]: 5.3% | Δ volume [2]: 503.8 | Δ weight [2]: 1.0 | % of baseline (weight) [3]: 105.6% and 110.6% and 103.7% and 103.8% and 102.1% and 113.0% and 103.2% and 101.2% | volume [3]: 495 and 354 and 689 and 763 and 717 and 1076 and 483 and 593 and 671 | weight [3]: 18.73 and 18.93 and 21.36 and 20.43 and 19.03 and 20.83 and 20.79 and 18.98 and 19.13 | Δ % (weight) [3]: 5.6% and 10.6% and 3.7% and 3.8% and 2.1% and 13.0% and 4.2% and 3.2% and 1.2% | Δ volume [3]: 371.9 and 229.1 and 550.6 and 621.8 and 571.9 and 925.7 and 329.0 and 431.2 and 502.7 | Δ weight [3]: 1.0 and 1.8 and 0.8 (3×) and 0.4 and 2.4 and 0.6 and 0.2 | volume [4]: 812.8 | weight [4]: 19.8 | Δ % (weight) [4]: 5.3% | Δ volume [4]: 667.3 | Δ weight [4]: 1.0 | % of baseline (weight) [5]: 103.8% and 109.8% and 102.5% and 102.7% and 114.2% and 100.4% | volume [5]: 687 and 392 and 817 and 923 and 1031 and 1324 and 603 and 734 and 804 | weight [5]: 18.40 and 18.79 and 21.71 and 20.17 and 19.13 and 21.06 and 20.78 and 18.47 and 19.87 | Δ % (weight) [5]: 3.8% and 9.8% and 5.4% and 2.5% and 2.7% and 14.2% and 4.2% and 0.4% and 5.1% | Δ volume [5]: 563.6 and 267.5 and 678.0 and 781.6 and 885.6 and 1173.4 and 448.7 and 571.8 and 635.5 | Δ weight [5]: 0.7 and 1.7 and 1.1 and 0.5 (2×) and 2.6 and 0.8 and 0.1 and 1.0 | % of baseline (weight) [6]: 105.6% and 110.0% and 108.4% | volume [6]: 797 and 560 and 1319 | weight [6]: 18.72 and 18.84 and 22.31 | Δ % (weight) [6]: 5.6% and 10.0% and 8.4% | Δ volume [6]: 673.0 and 435.6 and 1180.5 | Δ weight [6]: 1.0 and 1.7 (2×) | % of baseline (weight) [7]: 112.4% and 108.7% | volume [7]: 1127 and 848 and 2000 | weight [7]: 18.57 and 19.25 and 22.39 | Δ % (weight) [7]: 4.7% and 12.4% and 8.7% | Δ volume [7]: 1003.4 and 723.2 and 1861.0 | Δ weight [7]: 0.8 and 2.1 and 1.8 | weight [8]: 20.3 | Δ weight [8]: 1.5 | volume [9]: 1278.9 | Δ volume [9]: 1133.5 | % of baseline [8]: 108.0% | Δ % [8]: 8.0% | weight [10]: 20.77 and 19.53 and 21.42 and 21.45 and 19.51 and 20.43 | Δ weight [10]: 1.1 (2×) and 0.9 and 3.0 and 1.5 (2×) | volume [11]: 1418 and 1693 and 1970 and 1060 and 1218 and 1475 | Δ volume [11]: 1277.2 and 1547.4 and 1819.3 and 905.2 and 1056.5 and 1306.4 | % of baseline [10]: 116.2% and 107.5% and 108.1% | Δ % [10]: 5.5% and 4.8% and 16.2% and 7.5% and 6.0% and 8.1% | Day 41 % of baseline (weight) [12]: 101.5% | Day 41 volume [12]: 395.4 | Day 41 weight [12]: 19.1 | Day 45 volume [12]: 527.3 | Day 45 weight [12]: 19.9 | Day 41 Δ % (weight) [13]: 1.5% | Day 41 Δ volume [13]: 249.9 | Day 41 Δ weight [13]: 0.3 | Day 45 Δ % (weight) [13]: 5.6% | Day 45 Δ volume [13]: 381.9 | Day 45 Δ weight [13]: 1.0
